No end group written: not given here.
Tests used:
Assay in all cases: biochemical
Type in all cases: binding
HLA-A11 (A*1101) = HLA-A11 (A*1101) (Homo sapiens, UniProt P04439, A114D/D185E/E176A/F33Y/L180Q/S129P/T187R)
A*6801 = A*6801 (Homo sapiens, UniProt P04439, A269V/D185E/E176V/E277Q/E87N/F33Y/G231S/I121M/I166T/I218V/L180W/L300P/L318F/N151K/P208A/P217A/Q86R/R169H/T345S)
HLA-A3.2 (A*0301) = HLA-A3.2 (A*0301) (Homo sapiens, UniProt P04439)
A*3301 = A*3301 (Homo sapiens, UniProt P04439, A270S/D185E/E176V/E277Q/E87N/F33T/G231S/H175R/I121M/I218V/I322F/K168Q/K210R/L300P/L318F/M331R/P217A/Q86R/Q94H/R138Q/T323A/T345S/T97I/V358M/Y195H)
A31 (A*3101) = A31 (A*3101) (Homo sapiens, UniProt P04439, A270S/D185E/E176V/E277Q/F33T/G231S/G80R/H175R/I121M/I218V/I322F/K168Q/L300P/L318F/M331R/P217A/Q94H/R138Q/T323A/T345S/T97I/V358M)

Row | Compound | IC50 (HLA-A11 (A*1101)) [nM] | IC50 (A*6801) [nM] | IC50 (HLA-A3.2 (A*0301)) [nM] | IC50 (A*3301) [nM] | IC50 (A31 (A*3101)) [nM]
1 | CC[C@H](C)[C@H](N)C(=O)N[C@@H](CO)C(=O)N[C@@H](Cc1ccccc1)C(=O)N[C@@H](C)C(=O)NCC(=O)N[C@H](C(=O)N[C@H](C(=O)N[C@H](C(=O)N[C@@H](CCCCN)C(=O)O)[C@@H](C)O)C(C)C)[C@@H](C)CC [Peptide 1589.17] | 9.5 | 31 | 33 | 4370 | –
2 | AAFDLSFFLK [Peptide 9017.0189] | 2.3 | 1.9 | 9 | – | 130
3 | AFNSSHKGR [Peptide 88.0394] | > 20000 | > 20000 | > 20000 | – | 55
4 | ALKGLAQSK [Peptide 88.0416] | 1660 | > 20000 | 65 | > 20000 | –
5 | ALTALIKPK [Peptide 9017.0098] | 19 | 6020 | 24 | > 20000 | –
6 | AQVLHVLKRK [Peptide 88.0141] | 104 | 15800 | 161 | > 20000 | –
7 | ATLQDIVLH [Peptide 78.0278] | 152 | > 20000 | 4510 | > 20000 | –
8 | CFYSPALNK [Peptide 1556.43] | 74 | 1450 | 127 | 122 | –
9 | CTELKLVYR [Peptide 78.0334] | > 20000 | 1330 | > 20000 | – | 64
10 | DSNACAFLK [Peptide 1587.33] | 303 | 68 | 1420 | 39 | –
11 | ETNEALELK [Peptide 1556.68] | 93 | 1440 | 16800 | – | > 20000
12 | FLGAFKKFLK [Peptide 88.0169] | 9.6 | 275 | 3.3 | – | 11
13 | FTAFLGAFK [Peptide 88.0362] | 3.8 | 5.4 | 31 | 71 | –
14 | FTAFLGAFKK [Peptide 88.0168] | 25 | 20 | 1900 | – | > 20000
15 | GVEFISFLR [Peptide 1587.55] | 440 | 48 | > 20000 | – | 124
16 | GVIVMMLIR [Peptide 88.0376] | 434 | 2770 | 2380 | 214 | –
17 | GVMCRHYKR [Peptide 88.0388] | 80 | 93 | 2890 | – | 37
18 | GVSIEWRLRR [Peptide 9017.0220] | 468 | 4420 | 7780 | – | 189
19 | IQIKRRQQK [Peptide 9012.0207] | 20 | > 20000 | 29 | > 20000 | –
20 | ITVYYGVPVWR [Peptide 1525.06] | 76 | 5.4 | 831 | – | 13
21 | IVGWPAVRER [Peptide 9017.0186] | 1170 | 81 | 630 | – | 110
22 | KAILGQVVR [Peptide 9017.0092] | 5340 | 159 | 15500 | > 20000 | –
23 | KIDRLIDRIR [Peptide 9017.0249] | > 20000 | > 20000 | > 20000 | > 20000 | –

Row | Compound | IC50 (HLA-A11 (A*1101)) [nM] | IC50 (A*6801) [nM] | IC50 (HLA-A3.2 (A*0301)) [nM] | IC50 (A*3301) [nM] | IC50 (A31 (A*3101)) [nM]
24 | KTLEERVKK [Peptide 78.0294] | 160 | > 20000 | 302 | > 20000 | –
25 | LLLIRFRCSK [Peptide 88.0164] | 6980 | 732 | 205 | > 20000 | –
26 | LQQLLFIHFR [Peptide 9017.0241] | 58 | 81 | 2490 | – | 1.3
27 | LTALITPKK [Peptide 9017.0101] | 4.2 | 6.5 | 41 | – | 4500
28 | LVKMFCQLAK [Peptide 1556.50] | 189 | 221 | 1200 | – | 3340
29 | MLIRYTCGK [Peptide 88.0377] | 14 | 15 | 34 | – | 1220
30 | MVIEPPKLR [Peptide 88.0360] | 271 | 13 | > 20000 | – | 729
31 | NTMDYTNWK [Peptide 88.0425] | 19 | 13 | 1600 | – | > 20000
32 | QLVTQLMPK [Peptide 9012.0211] | 79 | 2260 | 88 | – | > 20000
33 | QQMNMCQWIK [Peptide 88.0186] | 20 | 197 | 346 | 13100 | –
34 | QVLHLLKRK [Peptide 88.0365] | 320 | 801 | 1550 | 1850 | –
35 | RILSTYLGR [Peptide 9017.0072] | 7.2 | 457 | 7.5 | – | 1.6
36 | RTHSSHLKSKK [Peptide 1556.76] | 9.8 | 1360 | 59 | 10700 | –
37 | RTLTLLSVTK [Peptide 1556.13] | 15 | 219 | 23 | 6760 | –
38 | RVHSSHLK [Peptide 1556.72] | 13 | 1630 | 144 | – | 483
39 | SLYGKTLEER [Peptide 78.0142] | 1730 | 178 | 56 | 5500 | –
40 | SQWIRFRCSK [Peptide 88.0147] | 130 | 11800 | 415 | – | 373
41 | STWHWTSDNK [Peptide 1589.22] | 17 | 18 | 161 | > 20000 | –
42 | TLDVYMIMVK [Peptide 9012.0258] | 17 | 2030 | 1560 | > 20000 | –
43 | VSYWGVYYIK [Peptide 1589.25] | 3 | 24 | 109 | 11500 | –
44 | VTVYDGVPVWR [Peptide 1525.08] | 246 | 59 | 7840 | 5720 | –
45 | VTYHSETQR [Peptide 1589.10] | 22 | 32 | 29 | – | 66
46 | WTIVYIEYRK [Peptide 9017.0243] | 37 | 0.94 | 4890 | – | 1350

— US9340577B2, “HLA binding motifs and peptides and their uses” (priority 1992, dated 2016)
